Laboratory results reported in US20240033124A1, “DRUG DELIVERY CONTACT LENS AND OPHTHALMIC PHARMACEUTICAL COMPOSITION” (DAE WON PHARMACEUTICAL CO., LTD, priority 2021, published 2024).

Assay: Drug release test according to blocking ratio of chamber unit (Franz diffusion cell)
Assay type: physicochemical
Experimental: In order to evaluate drug release characteristics according to the size of the blocking unit (blocking film) that is bonded to the chamber unit, which is for storing the drug, and is for blocking the release of the drug stored in the chamber unit, contact lenses for drug delivery of FIG. 4 having various blocking ratios were prepared.
Specifically, contact lenses for drug delivery bonded to blocking units (blocking films) capable of blocking a […], with respect to a total area of the chamber unit were prepared, a drug was injected into each chamber unit, and drug release characteristics were evaluated.
The drug release test was conducted by putting the contact lens for drug delivery into a Franz diffusion cell and evaluating, and the test was conducted while maintaining the temperature at 37.0±0.5° C. and by using a phosphate buffer solution of pH 7.4. A solution in which lifitegrast was dissolved in distilled water was injected into the chamber unit of contact lenses for drug delivery, and the contact lenses were mounted on a donor. In addition, the experiment was conducted in a manner that 5 mL of the solution in which the drug was released was collected with a syringe from each container, and filled with the same amount of buffer solution at a predetermined sampling time (0.5, 1, 1.5, 2, 3, 4, 6 hours), after 5 mL of the solution containing the collected drug was filtered through a syringe filter, 2 mL each was put into a vial and used as a test solution, and the obtained test solution was analyzed by using high-performance liquid chromatography (HPLC).

- Cumulative drug release (%) (blocking ratio 0%, 0 h): 0%
- Cumulative drug release (%) (blocking ratio 0%, 0.5 h): 95%
- Cumulative drug release (%) (blocking ratio 0%, 1 h): 100%
- Cumulative drug release (%) (blocking ratio 0%, 1.5 h): 100%
- Cumulative drug release (%) (blocking ratio 0%, 2 h): 100%
- Cumulative drug release (%) (blocking ratio 0%, 3 h): 100%
- Cumulative drug release (%) (blocking ratio 0%, 4 h): 100%
- Cumulative drug release (%) (blocking ratio 0%, 5 h): 100%
- Cumulative drug release (%) (blocking ratio 0%, 6 h): 100%
- Cumulative drug release (%) (blocking ratio 2.5%, 0 h): 0%
- Cumulative drug release (%) (blocking ratio 2.5%, 0.5 h): 90%
- Cumulative drug release (%) (blocking ratio 2.5%, 1 h): 95%
- Cumulative drug release (%) (blocking ratio 2.5%, 1.5 h): 100%
- Cumulative drug release (%) (blocking ratio 2.5%, 2 h): 100%
- Cumulative drug release (%) (blocking ratio 2.5%, 3 h): 100%
- Cumulative drug release (%) (blocking ratio 2.5%, 4 h): 100%
- Cumulative drug release (%) (blocking ratio 2.5%, 5 h): 100%
- Cumulative drug release (%) (blocking ratio 2.5%, 6 h): 100%
- Cumulative drug release (%) (blocking ratio 50%, 0 h): 0%
- Cumulative drug release (%) (blocking ratio 50%, 0.5 h): 86%
- Cumulative drug release (%) (blocking ratio 50%, 1 h): 90%
- Cumulative drug release (%) (blocking ratio 50%, 1.5 h): 93%
- Cumulative drug release (%) (blocking ratio 50%, 2 h): 96%
- Cumulative drug release (%) (blocking ratio 50%, 3 h): 100%
- Cumulative drug release (%) (blocking ratio 50%, 4 h): 100%
- Cumulative drug release (%) (blocking ratio 50%, 5 h): 100%
- Cumulative drug release (%) (blocking ratio 50%, 6 h): 100%
- Cumulative drug release (%) (blocking ratio 75%, 0 h): 0%
- Cumulative drug release (%) (blocking ratio 75%, 0.5 h): 61%
- Cumulative drug release (%) (blocking ratio 75%, 1 h): 77%
- Cumulative drug release (%) (blocking ratio 75%, 1.5 h): 83%
- Cumulative drug release (%) (blocking ratio 75%, 2 h): 87%
- Cumulative drug release (%) (blocking ratio 75%, 3 h): 91%
- Cumulative drug release (%) (blocking ratio 75%, 4 h): 94%
- Cumulative drug release (%) (blocking ratio 75%, 5 h): 97%
- Cumulative drug release (%) (blocking ratio 75%, 6 h): 100%
- Cumulative drug release (%) (blocking ratio 85%, 0 h): 0%
- Cumulative drug release (%) (blocking ratio 85%, 0.5 h): 49%
- Cumulative drug release (%) (blocking ratio 85%, 1 h): 59%
- Cumulative drug release (%) (blocking ratio 85%, 1.5 h): 65%
- Cumulative drug release (%) (blocking ratio 85%, 2 h): 73%
- Cumulative drug release (%) (blocking ratio 85%, 3 h): 79%
- Cumulative drug release (%) (blocking ratio 85%, 4 h): 87%
- Cumulative drug release (%) (blocking ratio 85%, 5 h): 93%
- Cumulative drug release (%) (blocking ratio 85%, 6 h): 98%
- Cumulative drug release (%) (blocking ratio 95%, 0 h): 0%
- Cumulative drug release (%) (blocking ratio 95%, 0.5 h): 33%
- Cumulative drug release (%) (blocking ratio 95%, 1 h): 41%
- Cumulative drug release (%) (blocking ratio 95%, 1.5 h): 51%
- Cumulative drug release (%) (blocking ratio 95%, 2 h): 59%
- Cumulative drug release (%) (blocking ratio 95%, 3 h): 71%
- Cumulative drug release (%) (blocking ratio 95%, 4 h): 83%
- Cumulative drug release (%) (blocking ratio 95%, 5 h): 90%
- Cumulative drug release (%) (blocking ratio 95%, 6 h): 94%
- Cumulative drug release (%) (blocking ratio 100%, 0 h): 0%
- Cumulative drug release (%) (blocking ratio 100%, 0.5 h): 0%
- Cumulative drug release (%) (blocking ratio 100%, 1 h): 0%
- Cumulative drug release (%) (blocking ratio 100%, 1.5 h): 0%
- Cumulative drug release (%) (blocking ratio 100%, 2 h): 0%
- Cumulative drug release (%) (blocking ratio 100%, 3 h): 0%
- Cumulative drug release (%) (blocking ratio 100%, 4 h): 0%
- Cumulative drug release (%) (blocking ratio 100%, 5 h): 0%
- Cumulative drug release (%) (blocking ratio 100%, 6 h): 0%
Structure (SMILES): CS(=O)(=O)c1cccc(C[C@H](NC(=O)c2c(Cl)cc3c(c2Cl)CCN(C(=O)c2ccc4ccoc4c2)C3)C(=O)O)c1 [lifitegrast]
